These results are taken from ChEMBL document CHEMBL3352415, “Synthesis and biological evaluation of novel thiadiazole amides as potent Cdc25B and PTP1B inhibitors” (Bioorg Med Chem Lett, 2014).

In experiment [1] the target is T1, Tyrosine-protein phosphatase non-receptor type 2 (Homo sapiens, UniProt P17706).
T1 sequence (P17706 whole entry): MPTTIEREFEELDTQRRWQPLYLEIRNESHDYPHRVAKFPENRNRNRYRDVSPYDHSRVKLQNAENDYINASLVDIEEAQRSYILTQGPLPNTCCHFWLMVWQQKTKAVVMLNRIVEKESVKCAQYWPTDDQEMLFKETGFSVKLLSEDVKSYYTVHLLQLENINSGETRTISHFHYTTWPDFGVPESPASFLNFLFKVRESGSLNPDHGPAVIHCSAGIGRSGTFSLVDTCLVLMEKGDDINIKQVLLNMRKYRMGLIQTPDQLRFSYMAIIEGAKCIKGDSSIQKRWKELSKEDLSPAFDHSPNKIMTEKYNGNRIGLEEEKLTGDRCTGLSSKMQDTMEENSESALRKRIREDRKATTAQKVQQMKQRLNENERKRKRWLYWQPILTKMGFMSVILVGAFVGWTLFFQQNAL
Description: Inhibition of TCPTP (unknown origin).

Experiment [2] deals with T2, Tyrosine-protein phosphatase non-receptor type 1 (Homo sapiens) (UniProt P18031).
T2 sequence (whole entry): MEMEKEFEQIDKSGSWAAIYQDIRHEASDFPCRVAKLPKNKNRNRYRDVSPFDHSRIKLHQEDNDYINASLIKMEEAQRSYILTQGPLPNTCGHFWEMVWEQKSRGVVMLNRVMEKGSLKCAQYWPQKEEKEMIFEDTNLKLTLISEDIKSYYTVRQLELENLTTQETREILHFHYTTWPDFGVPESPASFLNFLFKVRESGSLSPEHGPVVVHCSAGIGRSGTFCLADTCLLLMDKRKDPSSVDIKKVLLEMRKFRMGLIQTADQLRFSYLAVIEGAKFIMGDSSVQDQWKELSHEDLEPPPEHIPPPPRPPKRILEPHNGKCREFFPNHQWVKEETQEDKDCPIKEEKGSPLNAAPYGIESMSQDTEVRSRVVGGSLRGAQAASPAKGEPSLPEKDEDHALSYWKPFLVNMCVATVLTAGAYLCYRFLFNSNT
Description: Inhibition of PTP1B (unknown origin) at 5 ug/ml.

Experiment [3] deals with Receptor-type tyrosine-protein phosphatase F (Homo sapiens, UniProt P10586). Description: Inhibition of LAR (unknown origin).
For experiment [4], the target named is T3, Tyrosine-protein phosphatase non-receptor type 1 (Homo sapiens, UniProt P18031).
T3 sequence (P18031 whole entry): T2 sequence (whole entry)
Description: Inhibition of PTP1B (unknown origin).

Experiment [5] concerns the target Tyrosine-protein phosphatase non-receptor type 6 (Homo sapiens, UniProt P29350). Description: Inhibition of SHP1 (unknown origin).
Experiment [6] concerns the target T4, Tyrosine-protein phosphatase non-receptor type 11 (Homo sapiens, UniProt Q06124).
T4 sequence (Q06124 whole entry): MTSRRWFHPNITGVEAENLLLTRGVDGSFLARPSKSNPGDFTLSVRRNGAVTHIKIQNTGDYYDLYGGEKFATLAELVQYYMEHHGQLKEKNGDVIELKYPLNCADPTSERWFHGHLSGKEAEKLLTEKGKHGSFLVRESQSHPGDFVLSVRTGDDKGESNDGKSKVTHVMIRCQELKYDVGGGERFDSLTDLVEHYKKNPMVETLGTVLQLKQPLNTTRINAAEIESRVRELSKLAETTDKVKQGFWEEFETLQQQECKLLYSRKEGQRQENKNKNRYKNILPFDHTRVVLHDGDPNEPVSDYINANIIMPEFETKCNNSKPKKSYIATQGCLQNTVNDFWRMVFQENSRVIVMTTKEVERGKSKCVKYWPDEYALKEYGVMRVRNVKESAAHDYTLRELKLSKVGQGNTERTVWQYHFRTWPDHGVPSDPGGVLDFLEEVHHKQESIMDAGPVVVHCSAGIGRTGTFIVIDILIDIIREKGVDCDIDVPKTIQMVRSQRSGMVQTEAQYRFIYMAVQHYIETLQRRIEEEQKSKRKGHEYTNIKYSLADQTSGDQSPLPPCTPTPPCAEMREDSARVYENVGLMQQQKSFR
Description: Inhibition of SHP2 (unknown origin).

Experiment [7] concerns the target T5, M-phase inducer phosphatase 2 (Homo sapiens) (UniProt P30305).
T5 sequence (whole entry): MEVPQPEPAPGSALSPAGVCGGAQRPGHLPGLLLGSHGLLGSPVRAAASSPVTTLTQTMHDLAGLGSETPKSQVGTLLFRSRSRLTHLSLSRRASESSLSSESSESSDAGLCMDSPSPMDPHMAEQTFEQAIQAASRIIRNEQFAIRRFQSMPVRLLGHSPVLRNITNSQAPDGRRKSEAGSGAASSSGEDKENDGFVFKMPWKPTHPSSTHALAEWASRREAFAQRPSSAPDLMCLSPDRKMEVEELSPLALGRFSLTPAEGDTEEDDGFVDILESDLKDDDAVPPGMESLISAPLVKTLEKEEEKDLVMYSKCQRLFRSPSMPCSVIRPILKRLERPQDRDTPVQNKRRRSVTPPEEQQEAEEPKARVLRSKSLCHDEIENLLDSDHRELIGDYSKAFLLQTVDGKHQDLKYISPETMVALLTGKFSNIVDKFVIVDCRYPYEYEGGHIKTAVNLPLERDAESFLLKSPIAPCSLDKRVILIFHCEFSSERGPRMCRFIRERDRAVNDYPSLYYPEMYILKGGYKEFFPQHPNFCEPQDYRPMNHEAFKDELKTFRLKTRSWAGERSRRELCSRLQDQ
Description: Inhibition of Cdc25B (unknown origin) at 5 ug/ml.

The target of experiment [8] is T6, M-phase inducer phosphatase 2 (Homo sapiens, UniProt P30305).
T6 sequence (P30305 whole entry): T5 sequence (whole entry)
Description: Inhibition of Cdc25B (unknown origin).

The term IC50 denotes the concentration at which inhibition is half-maximal. By inhibition is commonly meant the drop in the measured response relative to a control, in per cent. A low value points to a response near the control.

Tyrosine-protein phosphatase non-receptor type 6, sequence (P29350 whole entry): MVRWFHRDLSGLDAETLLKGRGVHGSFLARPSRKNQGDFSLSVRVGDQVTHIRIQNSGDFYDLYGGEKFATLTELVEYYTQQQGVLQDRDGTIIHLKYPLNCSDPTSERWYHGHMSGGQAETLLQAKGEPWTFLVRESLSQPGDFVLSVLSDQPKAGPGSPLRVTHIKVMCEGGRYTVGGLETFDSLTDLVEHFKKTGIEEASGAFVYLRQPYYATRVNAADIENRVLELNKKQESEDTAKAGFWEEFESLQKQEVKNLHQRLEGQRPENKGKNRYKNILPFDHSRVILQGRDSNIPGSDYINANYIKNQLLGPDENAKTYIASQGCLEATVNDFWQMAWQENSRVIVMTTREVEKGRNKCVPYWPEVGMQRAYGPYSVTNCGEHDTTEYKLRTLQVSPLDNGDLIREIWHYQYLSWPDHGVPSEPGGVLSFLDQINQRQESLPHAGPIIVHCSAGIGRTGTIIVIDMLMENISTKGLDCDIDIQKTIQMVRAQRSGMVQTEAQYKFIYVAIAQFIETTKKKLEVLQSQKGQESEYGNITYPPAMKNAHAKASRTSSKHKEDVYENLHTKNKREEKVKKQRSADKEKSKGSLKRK
Receptor-type tyrosine-protein phosphatase F, sequence (P10586 whole entry): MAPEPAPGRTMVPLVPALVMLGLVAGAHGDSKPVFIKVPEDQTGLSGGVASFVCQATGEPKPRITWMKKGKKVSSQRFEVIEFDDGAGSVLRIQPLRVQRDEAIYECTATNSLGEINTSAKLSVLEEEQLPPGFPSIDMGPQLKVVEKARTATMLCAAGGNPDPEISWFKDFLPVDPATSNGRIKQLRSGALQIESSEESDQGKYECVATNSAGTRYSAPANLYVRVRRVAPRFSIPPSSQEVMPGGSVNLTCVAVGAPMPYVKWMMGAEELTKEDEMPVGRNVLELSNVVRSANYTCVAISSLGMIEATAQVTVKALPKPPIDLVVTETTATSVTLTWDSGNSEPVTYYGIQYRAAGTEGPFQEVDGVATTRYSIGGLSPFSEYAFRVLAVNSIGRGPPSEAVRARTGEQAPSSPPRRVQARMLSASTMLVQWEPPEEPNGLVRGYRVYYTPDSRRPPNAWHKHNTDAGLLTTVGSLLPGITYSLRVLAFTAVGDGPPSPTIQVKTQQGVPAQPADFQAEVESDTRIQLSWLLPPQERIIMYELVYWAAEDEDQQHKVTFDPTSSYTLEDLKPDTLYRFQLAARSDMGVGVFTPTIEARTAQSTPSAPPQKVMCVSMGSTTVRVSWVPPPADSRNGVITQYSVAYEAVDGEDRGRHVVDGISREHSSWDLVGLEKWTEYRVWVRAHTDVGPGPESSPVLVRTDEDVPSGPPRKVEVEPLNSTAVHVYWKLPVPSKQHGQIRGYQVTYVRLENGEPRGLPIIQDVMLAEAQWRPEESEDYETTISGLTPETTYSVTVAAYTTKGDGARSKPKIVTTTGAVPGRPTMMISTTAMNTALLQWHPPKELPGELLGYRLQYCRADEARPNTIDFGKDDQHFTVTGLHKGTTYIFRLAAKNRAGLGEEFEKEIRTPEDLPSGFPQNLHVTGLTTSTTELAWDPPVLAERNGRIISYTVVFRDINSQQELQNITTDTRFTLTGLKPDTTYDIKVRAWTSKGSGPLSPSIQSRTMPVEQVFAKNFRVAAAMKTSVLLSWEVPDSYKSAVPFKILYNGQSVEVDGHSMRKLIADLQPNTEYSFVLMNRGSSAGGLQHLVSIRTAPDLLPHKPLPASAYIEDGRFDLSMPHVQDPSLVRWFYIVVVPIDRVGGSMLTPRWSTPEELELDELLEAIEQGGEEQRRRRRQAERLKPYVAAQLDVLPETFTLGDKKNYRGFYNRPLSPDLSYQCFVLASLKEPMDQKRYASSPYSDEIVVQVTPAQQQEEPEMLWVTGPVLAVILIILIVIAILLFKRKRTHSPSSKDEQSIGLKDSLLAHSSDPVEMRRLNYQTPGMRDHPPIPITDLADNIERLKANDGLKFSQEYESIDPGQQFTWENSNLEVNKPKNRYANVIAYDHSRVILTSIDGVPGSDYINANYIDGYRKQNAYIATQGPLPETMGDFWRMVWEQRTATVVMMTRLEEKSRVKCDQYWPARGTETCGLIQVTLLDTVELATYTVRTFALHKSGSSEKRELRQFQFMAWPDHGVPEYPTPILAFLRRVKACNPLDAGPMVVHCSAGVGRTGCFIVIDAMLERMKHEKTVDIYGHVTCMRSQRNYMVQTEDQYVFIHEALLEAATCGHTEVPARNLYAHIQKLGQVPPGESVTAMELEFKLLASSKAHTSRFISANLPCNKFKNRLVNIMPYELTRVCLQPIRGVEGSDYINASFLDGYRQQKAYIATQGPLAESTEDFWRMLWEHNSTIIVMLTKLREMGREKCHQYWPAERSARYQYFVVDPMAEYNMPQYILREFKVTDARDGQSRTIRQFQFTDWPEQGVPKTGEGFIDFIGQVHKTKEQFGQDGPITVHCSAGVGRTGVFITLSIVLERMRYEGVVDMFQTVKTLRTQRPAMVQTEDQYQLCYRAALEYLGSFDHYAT

`COc1ccc(C(=O)Nc2nnc(-c3ccc(Oc4ccc([N+](=O)[O-])cc4)cc3)s2)cc1`: the IC50 result in experiment [1] was “Not Active”; in experiment [3], “Not Active”; in experiment [4], 9.08 µM; in experiment [5], “Not Active”; in experiment [6], “Not Active”; in experiment [8], 2.77 µM. The inhibition in experiment [2] is 72.6%; in experiment [7], 88.8%.
As to `Cc1ccc(C(=O)Nc2nnc(-c3ccc(Oc4ccc([N+](=O)[O-])cc4[N+](=O)[O-])cc3)s2)cc1`, the half-inhibitory concentration (IC50) result in experiment [1] was “Not Active”; in experiment [3] it was “Not Active”; in experiment [4], 10.8 µM; in experiment [5] it was “Not Active”; in experiment [6], “Not Active”; in experiment [8], 2.47 µM. Moreover, the inhibition is 85.3% in experiment [2] and 94.5% in experiment [7].
For the compound `O=C(Cc1ccccc1)Nc1nnc(-c2ccc(Oc3ccc([N+](=O)[O-])cc3[N+](=O)[O-])cc2)s1`, the IC50 result in experiment [1] is “Not Active”; in experiment [3], “Not Active”; in experiment [4], 4.11 µM; in experiment [5], “Not Active”; in experiment [6], “Not Active”; in experiment [8], 3.29 µM. For the same compound, the results for the inhibition in experiment [2] and in experiment [7] were 90.9% and 91.7%, respectively.
For `O=C(Nc1nnc(-c2ccc(Oc3ccc([N+](=O)[O-])cc3[N+](=O)[O-])cc2)s1)c1ccccc1F`, the IC50 entry was “Not Active” in experiment [1]; “Not Active” in experiment [3]; 3.51 µM in experiment [4]; “Not Active” in experiment [5]; “Not Active” in experiment [6]; 5.42 µM in experiment [8]. Also, the inhibition turned out to be 88.4% in experiment [2] and 99.3% in experiment [7].
As to `O=C(Nc1nnc(-c2ccc(Oc3ccc([N+](=O)[O-])cc3)cc2)s1)c1ccccc1`, the IC50 entry in experiment [1] is “Not Active”; in experiment [3] it was “Not Active”; in experiment [4], 9.89 µM; in experiment [5], “Not Active”; in experiment [6], “Not Active”; in experiment [8], 7.79 µM. The inhibition in experiment [2] came out at 79.6%; in experiment [7], 86.3%.
`O=C(Cc1cccc2ccccc12)Nc1nnc(-c2ccc(Oc3ccc([N+](=O)[O-])cc3[N+](=O)[O-])cc2)s1`: the IC50 entry in experiment [1] was “Not Active”; in experiment [3], “Not Active”; in experiment [4], 6.07 µM; in experiment [5], “Not Active”; in experiment [6], “Not Active”; in experiment [8], 5.69 µM. Further, the inhibition turned out to be 82.1% in experiment [2] and 88.9% in experiment [7].
Regarding `O=C(Nc1nnc(-c2ccc(Oc3ccc([N+](=O)[O-])cc3)cc2)s1)c1ccc([N+](=O)[O-])cc1`, the 50% inhibitory concentration (IC50) result was “Not Active” in experiment [1]; “Not Active” in experiment [3]; 3.6 µM in experiment [4]; “Not Active” in experiment [5]; “Not Active” in experiment [6]; 8.54 µM in experiment [8]. For the same compound, the inhibition in experiment [2] was 95.2%; in experiment [7], 96.4%.
With `COc1cccc(C(=O)Nc2nnc(-c3ccc(Oc4ccc([N+](=O)[O-])cc4[N+](=O)[O-])cc3)s2)c1`, the IC50 entry is “Not Active” in experiment [1]; “Not Active” in experiment [3]; 10.8 µM in experiment [4]; “Not Active” in experiment [5]; “Not Active” in experiment [6]; 8.33 µM in experiment [8]. Further, the results for the inhibition in experiment [2] and in experiment [7] were 86.3% and 92.6%, respectively.
Consider `O=C(Nc1nnc(-c2ccc(Oc3ccc([N+](=O)[O-])cc3)cc2)s1)c1ccccc1F`, for which the IC50 result in experiment [1] was “Not Active”; in experiment [3] it was “Not Active”; in experiment [4], 17.1 µM; in experiment [5], “Not Active”; in experiment [6], “Not Active”; in experiment [8], 10.2 µM. Further, the inhibition in experiment [2] was 60.6%; in experiment [7], 63.6%.
Regarding `O=C(Nc1nnc(-c2ccc(Oc3ccc([N+](=O)[O-])cc3)cc2)s1)c1cccnc1`, the half-inhibitory concentration (IC50) entry is “Not Active” in experiment [1]; “Not Active” in experiment [3]; 10 µM in experiment [4]; “Not Active” in experiment [5]; “Not Active” in experiment [6]; 8.01 µM in experiment [8]. Further, the inhibition in experiment [2] stood at 82.4%; in experiment [7], 97%.
For the compound `Cc1ccccc1C(=O)Nc1nnc(-c2ccc(Oc3ccc([N+](=O)[O-])cc3)cc2)s1`, the concentration for half-maximal inhibition (IC50) entry in experiment [1] was “Not Active”; in experiment [3] it was “Not Active”; in experiment [4], 8.05 µM; in experiment [5] it was “Not Active”; in experiment [6], “Not Active”; in experiment [8], 9.41 µM. Besides, the inhibition in experiment [2] is 60.4%; in experiment [7] it was 94%.
On to `COc1cc(C(=O)Nc2nnc(-c3ccc(Oc4ccc([N+](=O)[O-])cc4[N+](=O)[O-])cc3)s2)cc(OC)c1OC`, for which the IC50 result in experiment [1] was “Not Active”; in experiment [3], “Not Active”; in experiment [4], 5.24 µM; in experiment [5], “Not Active”; in experiment [6] it was “Not Active”; in experiment [8], 3.99 µM. Besides, the figures for the inhibition in experiment [2] and in experiment [7] were 84.2% and 84.5%, respectively.
Consider `O=C(Cc1cccc2ccccc12)Nc1nnc(-c2ccc(Oc3ccc([N+](=O)[O-])cc3)cc2)s1`, for which the half-inhibitory concentration (IC50) result is “Not Active” in experiment [1]; “Not Active” in experiment [3]; 7.52 µM in experiment [4]; “Not Active” in experiment [5]; “Not Active” in experiment [6]; 5.16 µM in experiment [8]. In addition, the inhibition in experiment [2] was determined as 74.1%; in experiment [7], 90.4%.
Regarding `O=C(Nc1nnc(-c2ccc(Oc3ccc([N+](=O)[O-])cc3)cc2)s1)c1ccco1`, the IC50 entry in experiment [1] is “Not Active”; in experiment [3], “Not Active”; in experiment [4], 11.3 µM; in experiment [5] it was “Not Active”; in experiment [6] it was “Not Active”; in experiment [8], 6.44 µM. For the same compound, the inhibition in experiment [2] was determined as 75.1%; in experiment [7], 87.7%.
